Target: T1, mGlyT-1b (Mus musculus, UniProt P28571)
T1 construct: host or cells: Flp-in-CHO
T1 sequence (P28571 1-651 isoform P28571-2): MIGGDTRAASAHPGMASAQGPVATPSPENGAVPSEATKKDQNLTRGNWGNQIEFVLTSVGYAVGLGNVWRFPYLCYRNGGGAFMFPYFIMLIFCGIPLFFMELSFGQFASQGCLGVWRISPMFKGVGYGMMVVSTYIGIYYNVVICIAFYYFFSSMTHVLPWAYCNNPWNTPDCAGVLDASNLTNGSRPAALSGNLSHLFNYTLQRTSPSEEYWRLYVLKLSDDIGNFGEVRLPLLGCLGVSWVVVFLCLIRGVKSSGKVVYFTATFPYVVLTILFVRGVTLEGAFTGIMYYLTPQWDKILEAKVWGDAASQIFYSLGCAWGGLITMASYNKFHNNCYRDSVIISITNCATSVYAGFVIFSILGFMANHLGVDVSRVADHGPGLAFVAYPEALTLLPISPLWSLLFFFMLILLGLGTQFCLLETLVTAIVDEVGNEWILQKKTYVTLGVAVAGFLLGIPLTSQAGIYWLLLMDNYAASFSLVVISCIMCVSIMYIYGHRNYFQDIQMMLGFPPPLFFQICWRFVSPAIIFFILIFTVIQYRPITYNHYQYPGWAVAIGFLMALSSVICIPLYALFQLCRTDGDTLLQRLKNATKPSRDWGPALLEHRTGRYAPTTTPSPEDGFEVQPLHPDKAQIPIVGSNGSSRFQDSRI
Experiment: Glycine Uptake Inhibition Assay (mGlyT-1b)
Assay type: cell-based
Settings: [3H]-glycine uptake in Flp-in-CHO cells transfected with mGlyT-1b cDNA; 20 min at 22° C.; read-out: GlyT-1 IC50
Experimental: DMEM complete medium: Nutrient mixture F-12 (Gibco Life-technologies), fetal bovine serum (FBS) 5%, (Gibco life technologies), Penicillin/Streptomycin 1% (Gibco life technologies), Hygromycin 0.6 mg/ml (Gibco life technologies), Glutamine 1 mM Gibco life technologies)
Uptake buffer (UB): 150 mM NaCl, 10 mM Hepes-Tris, pH 7.4, 1 mM CaCl2, 2.5 mM KCl, 2.5 mM MgSO4, 10 mM (+) D-glucose.
Flp-in™-CHO (Invitrogen Cat n^o R758-07) cells stably transfected with mGlyT1b cDNA.
Glycine Uptake Inhibition Assay (mGlyT-1b)
On day 1 mammalian cells, (Flp-in™-CHO), transfected with mGlyT-1b cDNA, were plated at the density of 40,000 cells/well in complete F-12 medium, without hygromycin in 96-well culture plates. On day 2, the medium was aspirated and the cells were washed twice with uptake buffer (UB). The cells were then incubated for 20 min at 22° C. with either (i) no potential competitor, (ii) 10 mM non-radioactive glycine, (iii) a concentration of a potential inhibitor. A range of concentrations of the potential inhibitor was used to generate data for calculating the concentration of inhibitor resulting in 50% of the effect (e.g. IC50, the concentration of the competitor inhibiting glycine uptake of 50%). A solution was then immediately added containing [^3H]-glycine 60 nM (11-16 Ci/mmol) and 25 μM non-radioactive glycine. The plates were incubated with gentle shaking and the reaction was stopped by aspiration of the mixture and washing (three times) with ice-cold UB. The cells were lysed with scintillation liquid, shaken 3 hours and the radioactivity in the cells was counted using a scintillation counter.

SMILES | IC50 [nM]
Cc1ccc(C(=O)NCC(=O)NC(c2cccc(F)c2)c2cccc(F)c2)s1 [Example 1.86, 5-Methyl-thiophene-2-carboxylic acid ({[bis-(3-fluoro-phenyl)-methyl]-carbamoyl}-methyl)-amide] | 42
O=C(CNC(=O)c1ccc(F)cc1)NC(c1ccccc1)c1cc(F)cc(F)c1 (racemic) [Example 1.72, rac-N-({[(3,5-Difluoro-phenyl)-phenyl-methyl]-carbamoyl}-methyl)-4-fluoro-benzamide] | 25
O=C(CNC(=O)c1ccc(F)cc1)NC(c1ccc(Cl)cc1)c1cccc(C(F)(F)F)c1 (racemic) [Example 1.76, rac-N-({[(4-Chloro-phenyl)-(3-trifluoromethyl-phenyl)-methyl]-carbamoyl}-methyl)-4-fluoro-benzamide] | 74
Cc1ccc(C(NC(=O)CNC(=O)c2ccc(F)cc2)c2cccc(C(F)(F)F)c2)cc1 (racemic) [Example 1.78, rac-4-Fluoro-N-({[p-tolyl-(3-trifluoromethyl-phenyl)-methyl]-carbamoyl}-methyl)-benzamide] | 58
N#Cc1ccc(C(=O)NCC(=O)NC(c2ccccc2)c2cccc(C(F)(F)F)c2)cc1 (racemic) [Example 1.44, rac-4-Cyano-N-({[phenyl-(3-trifluoromethyl-phenyl)-methyl]-carbamoyl}-methyl)-benzamide] | 19
O=C(CNC(=O)c1ccsc1)NC(c1cccc(F)c1)c1cccc(F)c1 [Example 1.98, Thiophene-3-carboxylic acid ({[bis-(3-fluoro-phenyl)-methyl]-carbamoyl}-methyl)-amide] | 28
O=C(CNC(=O)c1ccc(F)cc1)NC(c1ccc(F)cc1)c1cccc(C(F)(F)F)c1 (racemic) [Example 1.77, rac-4-Fluoro-N-({[(4-fluoro-phenyl)-(3-trifluoromethyl-phenyl)-methyl]-carbamoyl}-methyl)-benzamide] | 48

The remaining molecules from weak to strong by IC50, led by results:

IC50 [nM] | SMILES
88 | O=C(CNC(=O)c1ccc(F)cc1)NC(c1ccccc1)c1ccc(F)cc1 (racemic) [Example 1.69, rac-4-Fluoro-N-({[(4-fluoro-phenyl)-phenyl-methyl]-carbamoyl}-methyl)-benzamide]
54 | O=C(CNC(=O)c1ccccc1)NC(c1ccccc1)c1cccc(C(F)(F)F)c1 (racemic) [Example 1.30, rac-N-({[Phenyl-(3-trifluoromethyl-phenyl)-methyl]-carbamoyl}-methyl)-benzamide]
15 | O=C(CNC(=O)c1ccc([N+](=O)[O-])s1)NC(c1ccccc1)c1ccc(Cl)cc1 (racemic) [Example 1.32, rac-5-Nitro-thiophene-2-carboxylic acid ({[(4-chloro-phenyl)-phenyl-methyl]-carbamoyl}-methyl)-amide]
